Reference: patent US10799605B2 (3B PHARMACEUTICALS GMBH, priority 2014, dated 2020)

Experiments:
[1] = biological target: T1, NTR1 (Homo sapiens (Human), UniProt P30989); assay: Radioligand binding assay NTR1 (example part I)
Experimental: In order to determine the binding affinity of compounds comprising a radiolabel for NTR1, a radioligand binding assay was carried out. A radioligand is a radioactive biochemical substance that is used for diagnosis or for research-oriented study of cellular receptor systems of the body. In […] systems it is often used to quantify the binding of a test molecule to the binding site of radioligand. The higher the affinity of the molecule, the more radioligand is displaced from the binding site. The amount of bound radioligand can be measured by scintillation counting and thereby quantified. This assay is commonly used to calculate binding constants of molecules to receptors.
The NTR1 radioligand binding assay was performed by Cerep (Celle l'Evescault, France; Catalog reference 0109) according to Vita et al., FEBS Lett., 1993, 317, 139-142. NTR1 was prepared from CHO cells recombinantly expressing the human receptor and incubated with 0.05 nM ^125I-(Tyr^3-neurotensin) and serial dilutions of the test compounds. […] The result for each test compound is expressed as IC50 concentration and provides a measure for the affinity of the test compound for NTR1.

[2] = biological target: T1, NTR1; assay: Functional Ca2+ mobilisation assay (example part I); type: cell-based
From the text: Ca^2+ ions are usually kept at nanomolar levels in the cytosol of cells, and act in a number of signal transduction pathways as second messengers. […] Changes in calcium ion concentration in standard assay protocols can be readily detected with fluorescent dyes that emit light when changes in intracellular Ca^2+ ion concentration occur. Given the transient nature of these responses, they are often read with instrumentation that has ‘inject and read’ capability.
HT29 or NTR1-expressing HEK293 cells were trypsinized and seeded into black flat clear-bottom 96-well plates (Corning, Amsterdam, The Netherlands) at […] cells per well. After 24 h incubation at 37° C. and 5% CO2, cells were washed twice with wash buffer (130 mM NaCl, 5 mM KCl, 10 mM Hepes, 2 mM CaCl2, 10 mM Glucose, pH 7.4) and loaded with 100 μl of Ca5 dye (Molecular Devices, Biberach, Germany) for 1 h at 37° C. and 5% CO2. For agonist assays, serial dilutions of agonistic substances were added to the cells loaded with dye and the change of the fluorescent signal was recorded continually for approx. 90 s using a FlexStation II (Molecular Devices, Biberach, Germany). Addition of wash buffer served as a control. Thus, EC50 concentrations for each conjugate were computed and provided a measure for the potency of the substance. For antagonist assays, cells loaded with 100 μl of Ca5-dye were pre-incubated with serial dilutions of antagonistic substances for 30 min, before the EC80-concentration of agonist was added to the cells and the change of the fluorescent signal was recorded continually for approx. 90 s. Thus, IC50 concentrations were computed for each conjugate and provided a measure for the inhibitory activity of the conjugates at the NTR1.

T1 sequence (P30989 whole entry): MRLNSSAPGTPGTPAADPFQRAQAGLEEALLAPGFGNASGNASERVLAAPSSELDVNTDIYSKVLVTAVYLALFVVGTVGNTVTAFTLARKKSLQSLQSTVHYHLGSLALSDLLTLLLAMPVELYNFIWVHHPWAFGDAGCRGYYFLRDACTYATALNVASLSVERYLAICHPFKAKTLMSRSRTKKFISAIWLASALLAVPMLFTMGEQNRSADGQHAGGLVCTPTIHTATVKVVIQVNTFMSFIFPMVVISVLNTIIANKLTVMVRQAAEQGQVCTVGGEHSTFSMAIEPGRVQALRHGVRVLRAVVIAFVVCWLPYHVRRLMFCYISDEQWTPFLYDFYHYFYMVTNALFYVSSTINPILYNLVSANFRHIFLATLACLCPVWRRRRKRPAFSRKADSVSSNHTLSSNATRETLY

| SMILES | IC50 [1] | EC50 [2] | IC50 [2] |
| --- | --- | --- | --- |
| COc1cccc(OC)c1-c1cc(C(=O)NC2(C(=O)O)C3CC4CC(C3)CC2C4)nn1-c1ccc(C(=O)N(C)CCCN(C)CCCN(C)C(=O)CCCC(=O)NCCCOCCOCCOCCCNC(=O)CCC(=O)N[C@@H](CCCCNC(=O)CN2CCN(CC(=O)O)CCN(CC(=O)O)CCN(CC(=O)O)CC2)C(=O)NCCCOCCOCCOCCCNC(=O)CCC(=O)NCCCC(=O)N[C@@H](CC(N)=O)C(=O)N[C@@H](C)C(=O)N[C@H](C(=O)N2CCC[C@H]2C(=O)N[C@@H](CC(N)=O)C(=O)N[C@@H](CC(C)C)C(=O)N[C@@H](CCCNC(=N)N)C(=O)NCC(=O)N[C@@H](CC(=O)O)C(=O)N[C@@H](CC(C)C)C(=O)N[C@@H](CCC(N)=O)C(=O)N[C@H](C(=O)N[C@@H](CC(C)C)C(=O)N[C@@H](C)C(=O)N[C@@H](CCC(N)=O)C(=O)N[C@@H](CCCCN)C(=O)N[C@H](C(=O)N[C@@H](C)C(=O)N[C@@H](CCCNC(=N)N)C(=O)N[C@H](C(N)=O)[C@@H](C)O)C(C)C)C(C)C)C(C)C)cc1C(C)C (stereo partly drawn) [(21)] | 10 nM | > 50000 nM | 18 nM |
| COc1cccc(OC)c1-c1cc(C(=O)NC2(C(=O)O)C3CC4CC(C3)CC2C4)nn1-c1ccc(C(=O)N(C)CCCN(C)CCCN(C)C(=O)CCCC(=O)NCCCC[C@H](NC(=O)CCC(=O)NCCCOCCOCCOCCCNC(=O)CCC(=O)NCCCOCCOCCOCCCNC(=O)CCC(=O)NCCCOCCOCCOCCCNC(=O)[C@H](CCCCNC(=O)CN2CCN(CC(=O)O)CCN(CC(=O)O)CCN(CC(=O)O)CC2)NC(=O)CCC(=O)NCCCOCCOCCOCCCNC(=O)CCC(=O)NCCCOCCOCCOCCCNC(=O)CCC(=O)NCCCOCCOCCOCCCNC(=O)CCCNC(=O)[C@@H](NC(=O)[C@H](CCCNC(=N)N)NC(=O)[C@H](C)NC(=O)[C@@H](NC(=O)[C@H](CCCCN)NC(=O)[C@H](CCC(N)=O)NC(=O)[C@H](C)NC(=O)[C@H](CC(C)C)NC(=O)[C@@H](NC(=O)[C@H](CCC(N)=O)NC(=O)[C@H](CC(C)C)NC(=O)[C@H](CC(=O)O)NC(=O)CNC(=O)[C@H](CCCNC(=N)N)NC(=O)[C@H](CC(C)C)NC(=O)[C@H](CC(N)=O)NC(=O)[C@@H]2CCCN2C(=O)[C@@H](NC(=O)[C@H](C)NC(=O)[C@H](CC(N)=O)NC(C)=O)C(C)C)C(C)C)C(C)C)[C@@H](C)O)C(N)=O)cc1C(C)C (stereo partly drawn) [(22)] | 9.1 nM | > 50000 nM | 21 nM |
| COc1cccc(OC)c1-c1cc(C(=O)NC2(C(=O)O)C3CC4CC(C3)CC2C4)nn1-c1ccc(C(=O)N(C)CCCN(C)CCCN(C)C(=O)CCN2C(=O)CC(SC[C@H](NC(=O)CCC(=O)NCCCOCCOCCOCCCNC(=O)CCC(=O)NCCCOCCOCCOCCCNC(=O)CCC(=O)NCCCOCCOCCOCCCNC(=O)[C@H](CCCCNC(=O)CN3CCN(CC(=O)O)CCN(CC(=O)O)CCN(CC(=O)O)CC3)NC(=O)CCC(=O)NCCCOCCOCCOCCCNC(=O)CCC(=O)NCCCOCCOCCOCCCNC(=O)CCC(=O)NCCCOCCOCCOCCCNC(=O)CCCNC(=O)[C@@H](NC(=O)[C@H](CCCNC(=N)N)NC(=O)[C@H](C)NC(=O)[C@@H](NC(=O)[C@H](CCCCN)NC(=O)[C@H](CCC(N)=O)NC(=O)[C@H](C)NC(=O)[C@H](CC(C)C)NC(=O)[C@@H](NC(=O)[C@H](CCC(N)=O)NC(=O)[C@H](CC(C)C)NC(=O)[C@H](CC(=O)O)NC(=O)CNC(=O)[C@H](CCCNC(=N)N)NC(=O)[C@H](CC(C)C)NC(=O)[C@H](CC(N)=O)NC(=O)[C@@H]3CCCN3C(=O)[C@@H](NC(=O)[C@H](C)NC(=O)[C@H](CC(N)=O)NC(C)=O)C(C)C)C(C)C)C(C)C)[C@@H](C)O)C(N)=O)C2=O)cc1C(C)C (stereo partly drawn) [(23)] | 6.7 nM | > 50000 nM | 15 nM |
